Key:
Assay in all cases: relative viability (nuclei count vs DMSO), 5 days (fraction); higher = more cells survive
[1] = compound: Cn1c(=O)n(-c2ccc(C(C)(C)C#N)cc2)c2c3cc(-c4cnc5ccccc5c4)ccc3ncc21 [Dactolisib] + COc1cc2c(Oc3ccc(NC(=O)C4(C(=O)Nc5ccc(F)cc5)CC4)cc3F)ccnc2cc1OCCCN1CCOCC1 [Foretinib] (partner 0.25 µM)
Procedure, shortened: (§1)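 Medians of duplicate plates are given as relative viability. That measure is the nuclei count in treated wells divided by the count in vehicle wells. Counts were taken on 4× images of lung cancer cell lines in 1536-well plates, 5 days after pin-tool dosing the day after seeding with one drug alone or a fixed anchor-drug dose plus five library-drug doses (not always all listed) in √10 steps.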

[2] = compound: Cn1c(=O)n(-c2ccc(C(C)(C)C#N)cc2)c2c3cc(-c4cnc5ccccc5c4)ccc3ncc21 [Dactolisib] + C[C@@H](Oc1cc(-c2cnn(C3CCNCC3)c2)cnc1N)c1c(Cl)ccc(F)c1Cl [Crizotinib] (partner 1 µM)
Procedure, shortened: as §1

[3] = compound: C1CCC(CC1)N(CCNCCC2=C3C(=C(C=C2)O)NC(=O)CO3)C(=O)CCNCCC4=CC(=C(C=C4)Cl)Cl [AZ505] + Cc1nc(NC(=O)N2CCC[C@H]2C(N)=O)sc1-c1ccnc(C(C)(C)C(F)(F)F)c1 [Alpelisib] (partner 2 µM)
Procedure, shortened: as §1

[4] = compound: C1CCC(CC1)N(CCNCCC2=C3C(=C(C=C2)O)NC(=O)CO3)C(=O)CCNCCC4=CC(=C(C=C4)Cl)Cl [AZ505] + Cc1nc(Nc2ncc(C(=O)Nc3c(C)cccc3Cl)s2)cc(N2CCN(CCO)CC2)n1 [Dasatinib] (partner 0.075 µM)
Procedure, shortened: as §1

| Cell Line | relative viability ([1]; first compound 0.002 µM) | relative viability ([1]; first compound 0.006325 µM) | relative viability ([1]; first compound 0.02 µM) | relative viability ([1]; first compound 0.06325 µM) | relative viability ([1]; first compound 0.2 µM) | relative viability ([2]; first compound 0.002 µM) | relative viability ([2]; first compound 0.006325 µM) | relative viability ([2]; first compound 0.02 µM) | relative viability ([2]; first compound 0.06325 µM) | relative viability ([2]; first compound 0.2 µM) | relative viability ([3]; first compound 0.08 µM) | relative viability ([3]; first compound 0.253 µM) | relative viability ([3]; first compound 0.8 µM) | relative viability ([3]; first compound 2.53 µM) | relative viability ([3]; first compound 8 µM) | relative viability ([4]; first compound 0.08 µM) | relative viability ([4]; first compound 0.253 µM) | relative viability ([4]; first compound 0.8 µM) | relative viability ([4]; first compound 2.53 µM) | relative viability ([4]; first compound 8 µM) |
| --- | --- | --- | --- | --- | --- | --- | --- | --- | --- | --- | --- | --- | --- | --- | --- | --- | --- | --- | --- | --- |
| NCI-H1355 | 1.05 | 0.902 | 0.664 | 0.509 | 0.223 | 1.18 | 1.09 | 0.99 | 0.488 | 0.326 | 0.775 | 0.769 | 0.834 | 0.65 | 0.902 | 0.695 | 0.674 | 0.603 | 0.702 | 0.748 |
| NCI-H1437 | 1.37 | 1.28 | 1.25 | 1.24 | 1.34 | 1.03 | 0.904 | 0.902 | 0.699 | 0.865 | 0.852 | 0.93 | 0.876 | 0.932 | 1 | 0.346 | 0.334 | 0.58 | 0.378 | 0.376 |
| NCI-H1563 | 0.919 | 0.885 | 0.913 | 0.654 | 0.651 | 0.839 | 0.789 | 0.76 | 0.62 | 0.597 | 0.932 | 0.911 | 0.873 | 0.886 | 0.915 | 0.456 | 0.467 | 0.498 | 0.481 | 0.432 |
| NCI-H1651 | 0.918 | 0.782 | 0.561 | 0.321 | 0.345 | 0.861 | 0.891 | 0.777 | 0.679 | 0.57 | 0.94 | 1.03 | 0.977 | 0.89 | 0.939 | 0.47 | 0.416 | 0.386 | 0.441 | 0.49 |
| NCI-H1666 | 0.968 | 0.993 | 0.987 | 0.791 | 0.762 | 1.22 | 0.884 | 0.876 | 0.637 | 0.436 | 0.899 | 1.01 | 0.867 | 0.999 | 1.05 | 0.745 | 0.795 | 0.783 | 0.828 | 0.69 |
| NCI-H1734 | 0.837 | 0.773 | 0.805 | 0.467 | 0.284 | 0.634 | 0.578 | 0.454 | 0.333 | 0.164 | 0.633 | 0.626 | 0.631 | 0.744 | 0.683 | 0.456 | 0.467 | 0.482 | 0.478 | 0.417 |
| NCI-H1755 | 0.903 | 0.924 | 0.936 | 0.676 | 0.691 | 0.931 | 0.802 | 0.823 | 0.596 | 0.438 | 0.893 | 0.915 | 0.911 | 0.883 | 0.923 | 0.393 | 0.51 | 0.43 | 0.442 | 0.474 |
| NCI-H1915 | 1.19 | 1.06 | 1.08 | 0.832 | 0.467 | 0.889 | 0.903 | 0.916 | 0.713 | 0.529 | 1.01 | 1.1 | 0.977 | 0.986 | 1.08 | 0.28 | 0.298 | 0.269 | 0.275 | 0.337 |
| NCI-H1944 | 1.13 | 0.914 | 0.852 | 0.425 | 0.392 | 1.18 | 1.06 | 1.03 | 0.46 | 0.392 | 0.845 | 0.858 | 0.839 | 0.806 | 0.881 | 0.212 | 0.188 | 0.246 | 0.203 | 0.224 |
| NCI-H1975 | 1.06 | 0.897 | 0.715 | 0.454 | 0.334 | 1.18 | 0.948 | 0.7 | 0.358 | 0.34 | 0.578 | 0.689 | 0.651 | 0.651 | 0.654 | 0.343 | 0.358 | 0.425 | 0.343 | 0.495 |
| NCI-H1993 | 0.706 | 0.774 | 0.61 | 0.473 | 0.492 | 0.84 | 0.761 | 0.66 | 0.594 | 0.585 | 0.544 | 0.729 | 0.753 | 0.741 | 0.608 | 0.653 | 0.722 | 0.611 | 0.623 | 0.737 |
| NCI-H2009 | 1.28 | 1.24 | 1.06 | 1.2 | 0.625 | 1.01 | 1.05 | 1.02 | 0.986 | 0.566 | 1.07 | 1.11 | 1.12 | 1.1 | 1.13 | 0.221 | 0.267 | 0.219 | 0.237 | 0.242 |
| NCI-H2023 |  | 0.672 | 0.491 | 0.343 | 0.153 | 0.599 | 0.576 | 0.437 | 0.176 | 0.129 | 0.561 | 0.618 | 0.588 | 0.491 | 0.533 | 0.509 | 0.534 | 0.58 | 0.503 | 0.732 |
| NCI-H2085 | 1.09 | 1.05 | 0.747 | 0.337 | 0.301 | 0.904 | 0.763 | 0.668 | 0.523 | 0.305 | 0.825 | 0.905 | 0.884 | 1.01 | 1.01 | 0.246 | 0.242 | 0.234 | 0.252 | 0.237 |
| NCI-H2087 | 0.979 | 0.919 | 0.817 | 0.378 | 0.33 | 0.952 | 0.85 | 1.04 | 0.63 | 0.785 | 0.863 | 1.03 | 1.01 | 1.14 | 0.997 | 0.832 | 0.669 | 0.808 | 0.551 | 0.884 |
| NCI-H2126 | 1.32 | 1.24 | 1.08 | 0.653 | 0.498 | 1.07 | 1.03 | 0.98 | 0.713 | 0.537 | 0.729 | 0.781 | 0.771 | 0.746 | 0.822 | 0.578 | 0.579 | 0.601 | 0.646 | 0.586 |
| NCI-H2170 | 0.995 | 1.01 | 0.895 | 0.85 | 0.174 | 1.2 | 1.17 | 0.832 | 0.677 | 0.331 | 0.804 | 0.914 | 0.719 | 0.846 | 0.918 | 0.541 | 0.608 | 0.444 | 0.695 | 0.509 |
| NCI-H2228 | 0.875 | 0.675 | 0.406 | 0.191 | 0.181 | 0.601 | 0.283 | 0.297 | 0.252 | 0.175 | 0.627 | 0.554 | 0.677 | 0.69 | 0.748 | 0.447 | 0.421 | 0.51 | 0.457 | 0.443 |
| NCI-H2347 | 0.848 | 1 | 0.693 | 0.765 | 0.486 | 0.836 | 0.619 | 0.613 | 0.46 | 0.464 | 0.558 | 0.591 | 0.643 | 0.522 | 0.714 | 0.254 |  |  |  | 0.279 |
| NCI-H2405 | 1.02 | 1.06 | 1.05 | 0.606 | 0.475 | 0.758 | 0.867 | 0.849 | 0.541 | 0.38 | 0.4 | 0.426 | 0.503 | 0.384 | 0.508 | 0.187 | 0.151 | 0.133 | 0.203 | 0.176 |
| NCI-H3122 | 0.932 | 0.934 | 1.05 | 1.03 | 0.855 | 0.284 | 0.297 | 0.228 | 0.213 | 0.217 | 0.79 | 0.677 | 0.772 | 0.721 | 0.836 | 0.729 | 0.829 | 0.806 | 0.661 | 0.899 |
| PC-3 [JPC-3] | 1.13 | 1.06 | 1.03 | 0.816 | 0.565 | 1.08 | 0.979 | 0.916 | 0.874 | 0.768 | 0.914 | 0.961 | 0.941 | 0.919 | 0.979 | 0.848 | 0.968 | 0.864 | 0.937 | 0.858 |
| PC-14 | 0.982 | 0.97 | 0.973 | 0.592 | 0.399 | 0.918 | 0.932 | 0.953 | 0.603 | 0.391 | 0.81 | 0.964 | 0.925 | 0.906 | 0.961 | 0.219 | 0.241 | 0.296 | 0.264 | 0.227 |
| RERF-LC-KJ | 0.852 | 0.826 | 0.87 | 0.527 | 0.399 | 1.01 | 0.86 | 0.84 | 0.668 | 0.582 | 0.775 | 0.767 | 0.741 | 0.901 | 0.863 | 0.72 | 0.772 | 0.763 | 0.743 | 0.752 |
| SK-LU-1 | 0.806 | 0.713 | 0.575 | 0.382 | 0.245 | 0.912 | 0.936 | 0.681 | 0.455 | 0.352 | 0.499 | 0.846 | 0.537 | 0.69 | 0.741 | 0.182 | 0.168 | 0.163 | 0.161 | 0.16 |
| SK-MES-1 | 1.04 | 0.818 | 0.906 | 0.571 | 0.397 | 1.14 | 0.989 | 0.986 | 0.632 | 0.567 | 0.881 | 0.954 | 0.922 | 0.873 | 0.964 | 0.373 | 0.402 | 0.302 | 0.353 | 0.36 |
| SW 1573 | 0.996 | 0.964 | 0.875 | 0.34 | 0.371 | 0.989 | 0.712 | 0.66 | 0.572 | 0.317 | 0.658 | 0.714 | 0.661 | 0.82 | 0.858 | 0.476 | 0.605 | 0.414 | 0.594 | 0.426 |

Reference: the supplement of paper PMC10307832
